# Assay results published in patent US20250361210A1, “3,4-DIHYDROQUINOLIN-2(1H)-ONE COMPOUND” (Kissei Pharmaceutical Co., Ltd., priority 2022, published 2025).
# Molecular target: T1, human TSHR (Homo sapiens, UniProt P16473)
# T1 construct: expressed in transfected cells
# Assay: Antagonist activity using TSH-induced cAMP production in human TSHR-stably expressing CHO cells
# Type: cell-based
# Conditions: human TSH 50 ng/mL
# Method: Measurement of Antagonist Activity Using TSH-Induced cAMP Production in Human TSHR-Stably Expressing CHO Cells as an Indicator
# The human TSHR gene sequence (reference number NM_000369.2) was inserted into the multicloning site of pcDNA3.1(+). The constructed plasmid vector was introduced into CHO cells using the lipofection method to establish human TSHR-stably expressing CHO cells. The obtained cells were seeded at 5×10^4 cells/well in a 96-well poly-D-lysine-coated plate, and cultured in an F12 culture medium containing 10% FBS, 400 μg/mL of G418, 50 U/mL of penicillin and 50 μg/mL of streptomycin under conditions of 37° C. and 5% CO2 for 1 day. After the culture medium was removed, the cells were washed twice with 100 μL of an assay buffer solution (Hanks' Balanced Salt Solution containing 20 mM HEPES and 1 mM IBMX) per well. 30 μL of a test compound-containing assay buffer solution was added to the well and incubated at room temperature for 15 minutes. Then, 30 μL of an assay buffer solution containing human TSH (final concentration 50 ng/mL, R&D Systems, Inc.) was added, and incubated at 37° C. for 1 hour. The supernatant was removed, a Lysis and Detection Buffer 2 (Cisbio) was added, and the mixture was incubated at room temperature for 1 hour to prepare a cell lysate. According to the instruction manual of a cAMP Gs HiRange kit (Cisbio), the cell lysate, d2-labeled cAMP and anti-cAMP Europium Cryptate labeled antibodies (Cisbio) were reacted in a 384-well white microplate. Then, a fluorescence intensity ratio (measurement wavelength 665 nm/620 nm) was measured using a multi-plate reader (PHERAstar FSX, BMG LABTECH, Japan). The fluorescence intensity ratio of each sample was converted to a cAMP content using a standard curve. The cAMP content was converted as a percentage of the control value to calculate the cAMP production rate. The CAMP production rate was plotted against the test compound concentration using Prism (Graph Pad Software Inc.) to calculate the IC50 value. The IC50 of each test compound is shown in the above tables. In the tables, IC50<0.5 μM: A, 0.5 μM≤IC50<3.0 μM: B, 3.0 μM≤IC50<30 μM: C are shown.
# T1 sequence (P16473 21-764): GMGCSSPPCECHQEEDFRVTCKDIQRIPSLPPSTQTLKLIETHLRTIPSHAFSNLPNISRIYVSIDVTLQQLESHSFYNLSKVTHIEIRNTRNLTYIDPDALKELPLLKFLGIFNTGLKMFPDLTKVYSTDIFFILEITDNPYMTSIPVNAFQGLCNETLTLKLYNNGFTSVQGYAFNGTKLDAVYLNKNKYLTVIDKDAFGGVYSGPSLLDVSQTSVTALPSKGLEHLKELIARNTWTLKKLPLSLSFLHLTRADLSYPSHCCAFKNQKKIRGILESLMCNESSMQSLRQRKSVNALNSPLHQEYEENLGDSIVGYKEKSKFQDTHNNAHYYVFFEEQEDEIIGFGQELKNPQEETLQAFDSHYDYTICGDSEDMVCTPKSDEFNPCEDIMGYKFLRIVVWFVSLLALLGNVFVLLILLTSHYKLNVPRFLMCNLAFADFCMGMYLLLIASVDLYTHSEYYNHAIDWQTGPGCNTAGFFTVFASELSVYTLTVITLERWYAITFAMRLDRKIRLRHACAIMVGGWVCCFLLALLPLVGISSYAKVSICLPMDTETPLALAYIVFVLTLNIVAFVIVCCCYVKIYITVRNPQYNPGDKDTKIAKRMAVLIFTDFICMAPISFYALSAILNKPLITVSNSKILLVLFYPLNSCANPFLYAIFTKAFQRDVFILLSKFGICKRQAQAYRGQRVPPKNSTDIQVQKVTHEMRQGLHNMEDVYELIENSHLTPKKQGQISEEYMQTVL
row,SMILES,IC50 [nM]
1,CN1C(=O)[C@H](NC(N)=O)Cc2ccc(OCc3ccccc3)c(Oc3ccccc3Cl)c21 [Example 32],3000 to 30000
2,"CN1C(=O)C(NC(N)=O)Cc2cccc(Oc3cccc(F)c3)c21 (stereo not shown) [Example 4, (8-(3-fluorophenoxy)-1-methyl-2-oxo-1,2,3,4-tetrahydroquinolin-3-yl)urea]",3000 to 30000
3,"CN1C(=O)[C@H](NC(N)=O)Cc2ccc(Cl)c(Oc3ccccc3Cl)c21 [Example 22, ((3R)-7-chloro-8-(2-chlorophenoxy)-1-methyl-2-oxo-1,2,3,4-tetrahydroquinolin-3-yl)urea]",< 500
4,CN1C(=O)[C@H](NC(=O)C2CC2)Cc2cccc(Oc3cc(F)ccc3Cl)c21 [Example 84],< 500
5,"CN1C(=O)[C@H](NC(N)=O)Cc2ccc(Cl)c(Cc3ccccc3Cl)c21 [Example 62, ((3R)-7-chloro-8-((2-chlorophenyl)methyl)-1-methyl-2-oxo-1,2,3,4-tetrahydroquinolin-3-yl)urea]",< 500
6,"CN1C(=O)[C@H](NC(N)=O)Cc2ccc(CO)c(Oc3cc(F)ccc3Cl)c21 [Example 71, ((3R)-8-(2-chloro-5-fluorophenoxy)-7-(hydroxymethyl)-1-methyl-2-oxo-1,2,3,4-tetrahydroquinolin-3-yl)urea]",< 500
7,"CC(=O)N[C@@H]1Cc2ccc(C)c(Oc3cc(F)ccc3Cl)c2N(C)C1=O [Example 81, N-((3R)-8-(2-chloro-5-fluorophenoxy)-1,7-dimethyl-2-oxo-1,2,3,4-tetrahydroquinolin-3-yl)acetamide]",< 500
8,"CN1C(=O)[C@H](NC(N)=O)Cc2ccc(Cl)c(Cc3cc(F)ccc3Cl)c21 [Example 57, ((3R)-7-chloro-8-((2-chloro-5-fluorophenyl)methyl)-1-methyl-2-oxo-1,2,3,4-tetrahydroquinolin-3-yl)urea]",< 500
9,"CN1C(=O)[C@H](NC(N)=O)Cc2cccc(OC3CCCC3)c21 [Example 42, ((3R)-8-(cyclopentyloxy)-1-methyl-2-oxo-1,2,3,4-tetrahydroquinolin-3-yl)urea]",500 to 3000
10,"CN1C(=O)[C@H](NC(N)=O)Cc2ccc(C(F)(F)F)c(Oc3cc(F)ccc3Cl)c21 [Example 74, ((3R)-8-(2-chloro-5-fluorophenoxy)-1-methyl-2-oxo-7-(trifluoromethyl)-1,2,3,4-tetrahydroquinolin-3-yl)urea]",< 500
11,"CN1C(=O)C(NC(N)=O)Cc2cccc(Oc3ccccc3F)c21 (stereo not shown) [Example 3, (8-(2-fluorophenoxy)-1-methyl-2-oxo-1,2,3,4-tetrahydroquinolin-3-yl)urea]",500 to 3000
12,"CN1C(=O)[C@H](NC(N)=O)Cc2ccc(C(C)(F)F)c(Oc3cc(F)ccc3Cl)c21 [Example 75, ((3R)-8-(2-chloro-5-fluorophenoxy)-7-(1,1-difluoroethyl)-1-methyl-2-oxo-1,2,3,4-tetrahydroquinolin-3-yl)urea]",< 500
13,CN1C(=O)[C@H](NC(N)=O)Cc2cccc(OC3CCCCC3)c21 [Example 41],500 to 3000
14,"CN1C(=O)[C@H](NC(N)=O)Cc2ccc(F)c(Oc3ccccc3Cl)c21 [Example 19, ((3R)-8-(2-chlorophenoxy)-7-fluoro-1-methyl-2-oxo-1,2,3,4-tetrahydroquinolin-3-yl)urea]",< 500
15,"CN1C(=O)[C@H](NC(N)=O)Cc2ccc(Cl)c(Oc3ccccc3F)c21 [Example 23, ((3R)-7-chloro-8-(2-fluorophenoxy)-1-methyl-2-oxo-1,2,3,4-tetrahydroquinolin-3-yl)urea]",< 500
16,"CN1C(=O)[C@H](NC(N)=O)Cc2cccc(Oc3ccc(F)cc3Cl)c21 [Example 20, ((3R)-8-(2-chloro-4-fluorophenoxy)-1-methyl-2-oxo-1,2,3,4-tetrahydroquinolin-3-yl)urea]",< 500
17,COc1cccc(Oc2c(Cl)ccc3c2N(C)C(=O)[C@H](NC(N)=O)C3)c1 [Example 25],500 to 3000
18,"CN1C(=O)[C@H](NC(N)=O)Cc2cccc(Oc3ccccc3C(F)F)c21 [Example 18, ((3R)-8-(2-(difluoromethyl)phenoxy)-1-methyl-2-oxo-1,2,3,4-tetrahydroquinolin-3-yl)urea]",< 500
19,"CN1C(=O)[C@H](NC(N)=O)Cc2cccc(Oc3cc(F)c(F)cc3Cl)c21 [Example 35, ((3R)-8-(2-chloro-4,5-difluorophenoxy)-1-methyl-2-oxo-1,2,3,4-tetrahydroquinolin-3-yl)urea]",< 500
20,CN1C(=O)[C@H](NC(N)=O)Cc2ccc(Cl)c(Cc3cccc(F)c3)c21 [Example 65],500 to 3000

# Further lines, results first:
row,IC50 [nM],SMILES
1,< 500,"Cc1ccc2c(c1Oc1ccccc1C(F)F)N(C)C(=O)[C@H](NC(N)=O)C2 [Example 38, ((3R)-8-(2-(difluoromethyl)phenoxy)-1,7-dimethyl-2-oxo-1,2,3,4-tetrahydroquinolin-3-yl)urea]"
2,< 500,"CN1C(=O)[C@H](NC(N)=O)Cc2ccc(Cl)c(Oc3cc(F)ccc3F)c21 [Example 69, ((3R)-7-chloro-8-(2,5-difluorophenoxy)-1-methyl-2-oxo-1,2,3,4-tetrahydroquinolin-3-yl)urea]"
3,< 500,"CN1C(=O)[C@H](NC(N)=O)Cc2ccc(Cl)c(Oc3cc(F)ccc3Cl)c21 [Example 37, ((3R)-7-chloro-8-(2-chloro-5-fluorophenoxy)-1-methyl-2-oxo-1,2,3,4-tetrahydroquinolin-3-yl)urea]"
4,< 500,"CN1C(=O)[C@H](NC(N)=O)Cc2cccc(Cc3ccccc3C(F)F)c21 [Example 55, ((3R)-8-((2-(difluoromethyl)phenyl)methyl)-1-methyl-2-oxo-1,2,3,4-tetrahydroquinolin-3-yl)urea]"
5,< 500,"CN1C(=O)[C@H](NC(N)=O)Cc2cccc(Oc3ccccc3C(F)(F)F)c21 [Example 10, ((3R)-1-methyl-2-oxo-8-(2-(trifluoromethyl)phenoxy)-1,2,3,4-tetrahydroquinolin-3-yl)urea]"
6,< 500,"Cc1ccc2c(c1Oc1cc(F)ccc1Cl)N(C)C(=O)[C@H](NC(=O)CC(F)(F)F)C2 [Example 85, N-((3R)-8-(2-chloro-5-fluorophenoxy)-1,7-dimethyl-2-oxo-1,2,3,4-tetrahydroquinolin-3-yl)-3,3,3-trifluoropropanamide]"
7,< 500,"CN1C(=O)[C@H](NC(N)=O)Cc2ccc(F)c(Oc3cc(F)ccc3Cl)c21 [Example 44, ((3R)-8-(2-chloro-5-fluorophenoxy)-7-fluoro-1-methyl-2-oxo-1,2,3,4-tetrahydroquinolin-3-yl)urea]"
8,< 500,"CN1C(=O)[C@H](NC(N)=O)Cc2ccc(C(F)(F)F)c(Oc3ccccc3F)c21 [Example 49, ((3R)-8-(2-fluorophenoxy)-1-methyl-2-oxo-7-(trifluoromethyl)-1,2,3,4-tetrahydroquinolin-3-yl)urea]"
9,< 500,"CN1C(=O)[C@H](NC(N)=O)Cc2ccc(C(F)F)c(Oc3cc(F)ccc3Cl)c21 [Example 72, ((3R)-8-(2-chloro-5-fluorophenoxy)-7-(difluoromethyl)-1-methyl-2-oxo-1,2,3,4-tetrahydroquinolin-3-yl)urea]"
10,< 500,"Cc1ccc2c(c1Oc1cc(F)ccc1C(F)F)N(C)C(=O)[C@H](NC(N)=O)C2 [Example 70, ((3R)-8-(2-(difluoromethyl)-5-fluorophenoxy)-1,7-dimethyl-2-oxo-1,2,3,4-tetrahydroquinolin-3-yl)urea]"
11,< 500,"CNC(=O)N[C@@H]1Cc2ccc(C)c(Oc3cc(F)ccc3Cl)c2N(C)C1=O [Example 80, 1-((3R)-8-(2-chloro-5-fluorophenoxy)-1,7-dimethyl-2-oxo-1,2,3,4-tetrahydroquinolin-3-yl)-3-methylurea]"
12,< 500,"COc1ccc(Cl)c(Oc2cccc3c2N(C)C(=O)[C@H](NC(N)=O)C3)c1 [Example 30, ((3R)-8-(2-chloro-5-methoxyphenoxy)-1-methyl-2-oxo-1,2,3,4-tetrahydroquinolin-3-yl)urea]"
13,< 500,CN1C(=O)[C@H](NC(N)=O)Cc2cccc(Cc3cc(F)ccc3Cl)c21 [Example 52]
14,< 500,"Cc1ccc2c(c1Cc1cc(F)ccc1Cl)N(C)C(=O)[C@H](NC(N)=O)C2 [Example 59, ((3R)-8-((2-chloro-5-fluorophenyl)methyl)-1,7-dimethyl-2-oxo-1,2,3,4-tetrahydroquinolin-3-yl)urea]"
15,< 500,"Cc1ccccc1Cc1cccc2c1N(C)C(=O)[C@H](NC(N)=O)C2 [Example 54, ((3R)-1-methyl-8-((2-methylphenyl)methyl)-2-oxo-1,2,3,4-tetrahydroquinolin-3-yl)urea]"
16,< 500,"Cc1ccc2c(c1Oc1cccc(F)c1)N(C)C(=O)[C@H](NC(N)=O)C2 [Example 46, ((3R)-8-(3-fluorophenoxy)-1,7-dimethyl-2-oxo-1,2,3,4-tetrahydroquinolin-3-yl)urea]"
17,< 500,CN1C(=O)[C@H](NC(N)=O)Cc2cccc(Oc3cc(F)ccc3C(F)F)c21 [Example 28]
